This is an account of results in patent publication US8088729B2 (priority 2005, dated 2012).

Data set [1] has as its system MDCK cells. The data set is described as follows: cells. The data set is classed as cell-based, canine.
Data set [2] has as its system MDCK cells. The data set is described as follows: cells. The data set is classed as cell-based, canine. This is another data set of the same source.
The subject of a further data set is HIV-1 RF. Format: cell-based.
The test system of the next data set is CEM-SS cells. Set-up: direct cytotoxicity to the host cells: dose or concentration left out as unconfirmed.
The next data set addresses sCD4 (Homo sapiens, UniProt P01730). The data set is classed as binding.
The test system of data set [3] is T-lymphocytes (CEM-SS), PBMCs, macrophages. As to conditions: concentrations 1000-fold higher than the EC50 values.
The next data set addresses gp160 (Human immunodeficiency virus type 1 group M subtype B, UniProt P03375). As to conditions: 100 ng protein standard, Griffithsin 100 ng/well; FIG. 5a.
Another data set concerns Huh7 ET cell line. Conditions: for Cytotoxicity (% reduction in rRNA)*: single high-test concentration, compared to control cell.
A further data set relates to HIV-1IIIB. Format: cell-based. Conditions: concentration-dependent manner.
In the next data set the test system is Los Angeles/2/87 (H3N2). The data set is classed as cell-based, influenza A.
The next data set concerns HIV-1 Ba-L. The data set is classed as cell-based. Conditions: HIV primary isolate Ba-L; macrophage; M-tropic; p24 ELISA; mean value. For orientation: An ELISA detects its analyte on a solid surface through an enzyme-linked reagent.
Another data set relates to Texas/36/91 (H1N1). The data set is classed as cell-based, influenza A.
The target of another data set is soluble gp120 (sgp120) (Human immunodeficiency virus type 1 group M subtype B, UniProt P03375).
Data set [4] relates to gp120. The data set is classed as binding, HIV-1. As to conditions: 100 ng protein standard, Griffithsin 100 ng/well; FIG. 5a.
Data set [5] has as its target gp120 (Human immunodeficiency virus type 1 group M subtype B, UniProt P03378). Format: binding, HIV-1. Conditions: glycosylated and nonglycosylated HIV-1SF2 gp120, serial dilutions; FIG. 5b.
The next data set deals with Shandong/09/93 (H3N2). Format: cell-based, influenza A.
The subject of the next data set is Sydney/5/97 (H3N2). Format: cell-based, influenza A.
Data set [6] deals with Vero76 cells. Format: cell-based.
The test system of data set [7] is SARS virus. The data set is classed as cell-based.
Another data set deals with Panama/2007/99 (H3N2). Format: cell-based, influenza A.
The test system of another data set is Beijing/262/95 (H1N1). Format: cell-based, influenza A.
For another data set, the system named is Washington/05/96 (H3N2). The data set is classed as cell-based, influenza A.
Another data set has as its system HCV RNA replicon. The data set is classed as cell-based, Hepatitis C virus. Conditions: for Inhibition of Viral Activity (% reduction Luc): 20 µM.
In data set [8] the test system is SARS virus.
In a further data set the test system is HIV-1 ADA. Format: cell-based. As to conditions: HIV primary isolate ADA; macrophage; M-tropic; p24 ELISA; mean value.
The test system of data set [9] is SARS virus. This is another data set of the same source.
Data set [10] deals with sgp120 binding of CD4 on CEM-SS cells (Human immunodeficiency virus type 1 group M subtype B, UniProt P03375). Conditions: pretreatment of sgp120 with Griffithsin, Leu3a epitope availability.
Data set [11] concerns cell-cell fusion of uninfected and chronically infected CEM-SS. Format: cell-based.
The test system of data set [12] is bovine IgG, α-acid glycoprotein, and aprotinin. Format: binding.
The next data set relates to HIV-1 ROJO. The data set is classed as cell-based. As to conditions: HIV primary isolate ROJO; PBMC; T-tropic; supernatant RT activity; mean value.
For the next data set, the system named is Zaire ebola virus. Format: cell-based.
Data set [13] deals with Vero76 cells. The data set is classed as cell-based. This is another data set of the same source.
The test system of data set [14] is fusion of CD4 β-gal cells with HL 2/3 cells. Format: cell-based.
The subject of the next data set is HIV. The data set is classed as cell-based. From the text:
Potent cytoprotective and anti-replicative activities of both natural and His-tagged recombinant Griffithsin were observed using the HIV-1RF strain of HIB in CEM-SS cells. […] In contrast, infectivity of cell-free virus was abolished after pretreatment and removal of Griffithsin.

Where [15] appears, read: Canis lupus familiaris, MDCK, 72 h.

Several values for one entry are separate records, joined by “and”; a condition that tells them apart may be missing. Identical values can stand only once. Like-named read-outs stand apart in the source and are kept apart here.

Chain of gp120 (Human immunodeficiency virus type 1 group M subtype B, UniProt P03378) (P03378 32-509 limits assumed): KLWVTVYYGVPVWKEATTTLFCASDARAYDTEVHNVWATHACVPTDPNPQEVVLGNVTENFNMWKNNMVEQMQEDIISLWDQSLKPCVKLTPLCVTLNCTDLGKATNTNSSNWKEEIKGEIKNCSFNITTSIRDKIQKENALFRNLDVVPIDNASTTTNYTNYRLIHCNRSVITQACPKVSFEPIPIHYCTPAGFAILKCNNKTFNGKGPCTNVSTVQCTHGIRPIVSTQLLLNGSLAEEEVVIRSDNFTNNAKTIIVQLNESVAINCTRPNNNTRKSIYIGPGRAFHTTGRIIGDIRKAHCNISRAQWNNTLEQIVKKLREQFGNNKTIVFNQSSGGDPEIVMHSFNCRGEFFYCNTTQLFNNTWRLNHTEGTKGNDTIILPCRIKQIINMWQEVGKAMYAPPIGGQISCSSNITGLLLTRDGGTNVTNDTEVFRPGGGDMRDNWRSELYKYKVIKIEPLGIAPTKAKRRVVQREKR

A word on the IC50: it is the midpoint of a concentration-inhibition curve. For `NC(=O)c1ncn([C@@H]2O[C@H](CO)[C@@H](O)[C@H]2O)n1` [Ribavirin, reference compound], the IC50 with MDCK cells [1] (setting [15]) and in the data set with MDCK cells [2] (setting [15]) was over 100 µg/mL throughout.

A word on the EC50: it is the concentration at which the effect is half-maximal. The EC90 is the concentration needed for an effect of 90%. On to Griffithsin, for which, in the data set on HIV-1 RF (CEM-SS cells infected with HIV-1, FIG. 4), the “anti-HIV activity, EC50” value is “low nanomolar range”. Besides, the “inhibition of virus-induced cell killing” value in the data set on HIV-1 RF (HIV-1RF in CEM-SS cells) is “concentration-dependent inhibition”. In addition, in the data set on HIV-1 RF (HIV-1RF in CEM-SS cells), the “supernatant reverse transcriptase and viral core antigen, p24” value is “concomitant decreases”. The EC50 in the data set with HIV-1 RF (HIV-1 laboratory strain RF, CEM-SS, T-tropic, XTT-tetrazolium, mean value) was 0.043 nM; in the data set on Los Angeles/2/87 (H3N2), 0.037 µg/mL; in the data set on HIV-1 Ba-L, 0.098 nM; in the data set on Texas/36/91 (H1N1), 0.06 µg/mL; with Shandong/09/93 (H3N2) it was 0.018 µg/mL; in the data set with Sydney/5/97 (H3N2) it was 0.016 µg/mL. The EC50 in the data set on SARS virus [7] was 4 µg/mL and 2 µg/mL; with Panama/2007/99 (H3N2) it was 0.006 µg/mL; in the data set on Beijing/262/95 (H1N1), 0.07 µg/mL; with Washington/05/96 (H3N2), 0.016 µg/mL; in the data set on HIV-1 ADA, 0.5 nM; in the data set on SARS virus [9], 14 µg/mL. This compound yielded an EC50 with HIV-1 ROJO of 0.63 nM. Also, in the data set with CEM-SS cells (highest tested concentrations), the “direct cytotoxicity to the host cells” value was “no significant evidence of direct cytotoxicity”. In addition, in the data set on CEM-SS cells (highest tested concentrations of Griffithsin (78.3 to 783 nM)), the “direct cytotoxicity to the uninfected control cells” value is “little or no evidence of direct cytotoxicity”. Besides, the “interaction with cCD4 (ELISA)” value on sCD4 is on record as “little or no detectable interaction”. Also, the “toxicity against any of the cell lines” value in [3] was “did not show any toxicity”. Moreover, the “interaction with gp160 (ELISA)” value at gp160 was “direct interaction”. Further, in the data set on Huh7 ET cell line (highest test concentration of 10 μg/ml, FIG. 7), the “toxicity level (cytotoxicity)” value is “never reached a toxicity level”. For the same compound, in the data set with Huh7 ET cell line (single high-test concentration of 20 μM, 72 hr), the “overall reduction in cell growth” value is reported as 25%. The “Cytotoxicity (% reduction in rRNA)*” value with Huh7 ET cell line (72 hr) is recorded as 74.5%. For the same compound, the “cell-free HIV-1IIIB fusion and infection of β-gal cells” value with HIV-1IIIB is “inhibited”. Moreover, the “subsequent binding of cyanovirin-N to sgp120” value on soluble gp120 (sgp120) (Griffithsin pretreatment of sgp120) is “did not block”. Besides, the “recognition of sgp120 by mAbs that recognize the C1 region (or V3 loop), and the mAb 17b” value at soluble gp120 (sgp120) (effect of Griffithsin) is reported as “little or no effect”. Moreover, the “recognition of sgp120 by the mAbs 48d and 2G12” value at soluble gp120 (sgp120) (effect of Griffithsin) is recorded as “interfered strongly”. Further, the “sCD4 and mAb IgG 1b12 binding to sgp120” value on soluble gp120 (sgp120) (effect of Griffithsin) is listed as “moderately interfered”. Besides, the “subsequent binding of Griffithsin to sgp120” value on soluble gp120 (sgp120) (sgp120 pretreated with sCD4 and the mAbs IgG1b12, 48d, and 2G12) is “did not block”. Besides, the IC50 was over 10 µg/mL in the data set on MDCK cells [1], over 100 µg/mL in the data set with Vero76 cells [6], over 10 µg/mL in the data set with MDCK cells [2] and over 100 µg/mL in the data set on Vero76 cells [13]. Besides, in the data set on gp120 [4], the “interaction with gp120 (ELISA, absorbance at 405 nm)” value was “direct interaction”. Besides, the “binding of Griffithsin to sgp120” value at gp120 [5] is “both concentration-dependent and glycosylation-dependent”. Besides, the “average EC50” value in the data set on SARS virus [7] came out at 3 µg/mL. Besides, in the data set on MDCK cell line, the “toxicity to the MDCK cell line” value was “not found to be toxic”. For the same compound, in the data set on HCV RNA replicon, the “EC50 (anti-HCV)” value stood at 7.17 µg/mL. Further, the “Inhibition of Viral Activity (% reduction Luc)” value in the data set on HCV RNA replicon is on record as 60%. In the data set on SARS virus [8], this compound showed an EC90 of 5 µg/mL. The “CD4-dependent sgp120 binding” value in data set [10] is given as “completely blocked”. Moreover, in data set [11], the “inhibition of cell-cell fusion” value is given as “concentration-dependent inhibition”. Moreover, in data set [12], the “interaction with other reference proteins (ELISA)” value is on record as “little or no detectable interaction”. For the same compound, the anti-ebola virus activity result in the data set with Zaire ebola virus is given as “low μg/ml range”. In addition, the “IC50 in each assay” value with Vero76 cells [13] is recorded as “greater than 100 μg/ml”. The “fusion of CD4 β-gal cells with HL 2/3 cells” value in data set [14] was “inhibited”. Besides, the “infectivity of cell-free virus” value in the data set on HIV (after pretreatment of virus and removal of Griffithsin) is recorded as “abolished”. For the same compound, the “susceptibility of pretreated uninfected CEM-SS cells to HIV infection” value in the data set on HIV (after the removal of Griffithsin) was “retained normal susceptibility”.

Regarding Cyanovirin-N [reference compound], at soluble gp120 (sgp120) (effect of cyanovirin-N), the “recognition of sgp120 by Griffithsin” value is “interfered strongly”.

Consider IFN-α [reference compound], for which the “Cytotoxicity (% reduction in rRNA)*” value in the data set on Huh7 ET cell line (72 hr) worked out at 98.4%. The “Inhibition of Viral Activity (% reduction Luc)” value with HCV RNA replicon is recorded as 98.6%.
